Laboratory results from patent US6444684B1 (priority 1993, dated 2002).
Where two headings read alike, the source gives them in different places.

How the values were obtained:
[1] = system: H/1.2 = ras^H Transformed NRKE Cells; assay: cells; settings: Rattus norvegicus, read-out: LC50 H/1.2
[2] = system: K/1 = ras^K Transformed NRKE Cells; assay: cells; settings: Rattus norvegicus, read-out: LC50 K/1
[3] = system: Breast Cancer cell lines; assay: NCI in vitro anticancer screen (SRB), breast cancer subpanel; settings: 48 hours exposure; average percent growth over the cell lines
Experimental: (§1) Compounds chosen for the program are initially tested in an in vitro anticancer screen. A total of fifty-five human tumor cell lines, derived from nine cancer types (lung, colon, melanoma, renal, ovarian, brain, prostate, breast and leukemia), are used in this screen. The tumor cells are inoculated over a series of standard 96-well microtiter plates on day 0. These cells are then preincubated on the microtiter plates for 24 hours. The test compounds are added to the wells in five 10-fold dilutions starting from the highest soluble concentration. Each compound is tested against every cell line in the panel. The compounds are incubated for 48 hours with the tumor cell lines. At the termination of the assay, the cells are fixed in situ, washed, and dried. Sulforhodamine B (SRB), a pink anionic dye that binds to the basic amino acids of trichloroacetic acid-fixed cells, is added. The cells are washed again, and the remaining dye is a function of the adherent cell mass. The bound stain is solubilized and measured spectrophotometrically. The data are entered from automatic reading devices into a computer for subsequent storage and analysis.
(§2) The measured effect of each test compound on the cell lines is calculated according to one or the other of the following two expressions:
(§3) If (Mean ODtest−Mean ODtzero)□0, then PG=100×(Mean ODtest−Mean ODtzero)/(Mean ODctrl−Mean ODtzero);
(§4) If (Mean ODtest−Mean ODtzero)<0, then PG=100×(Mean ODtest−Mean ODtzero)/Meantzero;

[4] = system: Renal Cancer cell lines; assay: NCI in vitro anticancer screen (SRB), renal cancer subpanel; settings: 48 hours exposure; average percent growth over the cell lines
Experimental: as §1, §2, §3, §4
(§5) First, a data sheet is provided which lists, for each cell line, the Mean ODtzero, the Mean ODctrl, the Mean ODtest for each of the five concentrations, the calculated PGs for each concentration, and the response parameters G150, TGI, and LC50.
(§6) Third, mean graphs at each of the principal response parameters (GI50, TGI, and LC50) are provided. […] Since the bar scale is logarithmic, a bar two units to the right implies the compound achieved the response parameter (e.g., GI50) for the cell line at a concentration 1/100 the mean concentration required over all cell lines, and thus the cell line is unusually sensitive to that compound. Bars extending to the left correspondingly imply sensitivity less than the mean. Thus, the mean graphs facilitate visual scanning of data for potential patterns of selectivity for particular cell lines or for particular subpanels with respect to a selected response parameter.

[5] = system: L. major; assay: L. major footpad infection in Balb/c mice; type: in vivo; settings: 80 mg/kg/day intraperitoneally in corn oil for seven days
Experimental: Compound 1 dissolved in corn oil was administered intraperitoneally to Balb/c mice (Ball State University colony) at 80 mg/kg/day for seven days beginning one day prior to injection of 5×10^6 L. major promastigotes in medium 199 in the hind foot. Control mice received an equivalent amount of corn oil and L. major. Beginning on day 8, the thickness of the footpads top to bottom was measured using a vernier caliper. Footpad swelling indicates progression of the disease. The percent increase in footpad size was calculated as: [formula]
The percent increase in footpad size is for triplicate mice in the control group and duplicate mice in the treated group.

[6] = system: 3LL = Lewis Lung Carcinoma Cells; assay: cells; settings: Mus musculus
[7] = system: Leukemia cell lines; assay: NCI in vitro anticancer screen (SRB), leukemia subpanel; settings: 48 hours exposure; average percent growth over the cell lines
Experimental: as §1, §2, §3, §4, §5, §6

[8] = system: Prostate Cancer cell lines; assay: NCI in vitro anticancer screen (SRB), prostate cancer subpanel; settings: 48 hours exposure; average percent growth over the cell lines
Experimental: as §1, §2, §3, §4

[9] = in vitro; settings: rat, LC50 NRKE
[10] = system: Colon Cancer cell lines; assay: NCI in vitro anticancer screen (SRB), colon cancer subpanel; settings: 48 hours exposure; average percent growth over the cell lines
Experimental: as §1, §2, §3, §4

[11] = system: K/1 = ras^K Transformed NRKE Cells
[12] = Solubility in dosing vehicle; type: physicochemical; settings: 10 percent emulphor 620 in Dulbecco's phosphate buffered saline
Experimental: CY was dissolved in isotonic saline, 20 and 21 were dissolved in corn oil, and 1 was dissolved in 10 percent emulphor 620 in Dulbecco's phosphate buffered saline. […] Starting 1 day after tumor implantation, drugs were administered interperitoneally (IP) at the doses given in Table X. CY and compounds 20 and 21 were given once daily for 8 days. Compound 1 was administered in three doses per day at lower dose levels, and the animals were treated for 7 days. On day 10, tumor masses, percent inhibition of tumor growth, and weight changes were determined.

[13] = system: Melanoma cell lines; assay: NCI in vitro anticancer screen (SRB), melanoma subpanel; settings: 48 hours exposure; average percent growth over the cell lines
[14] = system: Non-Small Cell Lung Cancer cell lines; assay: NCI in vitro anticancer screen (SRB), non-small cell lung cancer subpanel; settings: 48 hours exposure; average percent growth over the cell lines
Experimental: as §1, §2, §3, §4, §5, §6

[15] = system: Ovarian Cancer cell lines; assay: NCI in vitro anticancer screen (SRB), ovarian cancer subpanel; settings: 48 hours exposure; average percent growth over the cell lines
[16] = system: K/1-NRKE tumor (ras^K-transformed NRKE cells)
[17] = system: CNS Cancer cell lines; assay: NCI in vitro anticancer screen (SRB), CNS cancer subpanel; settings: 48 hours exposure; average percent growth over the cell lines
[18] = system: human tumor cells in hollow fibers; assay: NCI Hollow Fiber Assay for preliminary in vivo testing; settings: combined IP+SC score
Experimental: For these assays, human tumor cells are cultivated in polyvinylidene fluoride (PVDF) hollow fibers, and a sample of each cell line is implanted into each of two physiologic compartments (intraperitoneal and subcutaneous) in mice. Each test mouse receives a total of 6 fibers (3 intraperitoneally and 3 subcutaneously) representing 3 distinct cancer cells lines. Three mice are treated with potential antitumor compounds at each of 2 test doses by the intraperitoneal route using a QD×4 treatment schedule. Vehicle controls consist of 6 mice receiving the compound diluent only. The fiber cultures are collected on the day following the last day of treatment. To assess anticancer effects, viable cell mass is determined for each of the cell lines using a formazan dye (MTT) conversion assay. From this, the % T/C can be calculated using the average optical density of the compound treated samples divided by the average optical density of the vehicle controls. In addition, the net increase in cell mass can be determined for each sample as a sample of fiber cultures are assessed for viable cell mass on the day of implantation into mice. Thus, the cytostatic and cytocidal capacities of the test compound can be assessed.
This represents a total of 4 experiments since each experiment contains 3 cell lines. […]

[19] = system: 3LL = Lewis Lung Carcinoma Cells; settings: 3LL = Lewis lung carcinoma cells, compared with normal NRKE cells
[20] = system: N/4.2-NRKE transformed by the human ras^N gene; settings: N/4.2 = ras^N transformed NRK cells, compared with normal NRKE cells
[21] = system: H/1.2 = ras^H Transformed NRKE Cells; settings: H/1.2 = ras^H transformed NRKE cells, compared with normal NRKE cells

SMILES: COC(=O)c1nc(-c2ccc3c(n2)C(=O)C(NC(C)=O)=CC3=O)c2[nH]c3ccccc3c2c1C [Compound 1, 7-N-Acetyllavendamycin Methyl Ester]
- CC50 ([1]; 120 h): 700 nM
- CC50 [1]: 700 nM
- CC50 ([2]; 120 h): 100 nM
- CC50 [2]: 100 nM
- Activity (Average PG for highest dose tested) Breast Cancer [3]: +47.9%
- Activity (Average PG for highest dose tested) Renal Cancer [4]: +63.0%
- adverse effect of administration as measured by weight loss (in words) [5]: did not. appear to be adversely affected
- CC50 ([6]; 120 h, read-out: LC50 3LL, Table VII, concentration giving 50% cell kill, 5 days exposure): > 33000 nM
- CC50 ([6]; read-out: LC50 3LL, Table VIII): < 33000 nM
- CC50 ([6]; read-out: LC50 3LL, second table headed TABLE VIII): > 33000 nM
- Activity (Average PG for highest dose tested) Leukemia [7]: +36.3%
- Activity (Average PG for highest dose tested) Prostate Cancer [8]: +89.5%
- CC50 at 5 days [9]: 900 nM
- Activity (Average PG for highest dose tested) Colon Cancer [10]: +80.0%
- selective toxicity against ras^K oncogene bearing tumor cells as compared to the normal, non-transformed cells ([11]; LC50 NRKE divided by LC50 K/1): 9 fold
- CC50 ([11]; rat, 5 days): 100 nM
- solubility in vehicle (in words) [12]: poorly soluble
- Activity (Average PG for highest dose tested) Melanoma [13]: +80.3%
- Activity (Average PG for highest dose tested) Non-Small Cell Lung Cancer [14]: +42.6%
- Activity (Average PG for highest dose tested) Ovarian Cancer [15]: +70.0%
- Number Dead Number Treated ([16]; 10 Mg/Kg/Day IP in three doses per day for 7 days): 0/7
- Number Dead Number Treated ([16]; 30 Mg/Kg/Day IP in three doses per day for 7 days): 0/7
- Number Dead Number Treated ([16]; 100 Mg/Kg/Day IP in three doses per day for 7 days): 0/7
- toxicity in tumor-bearing nude mice (in words) ([16]; mouse, in vivo): little or no toxicity
- tumor growth inhibition in vivo (in words) ([16]; summary of Table X): excellent tumor growth inhibition
- Activity (Average PG for highest dose tested) CNS Cancer [17]: +60.2%

SMILES: COC(=O)c1nc(-c2ccc3c(n2)C(=O)C(N)=C(Cl)C3=O)c2[nH]c3ccccc3c2c1C [Compound 58, 6-Chlorolavendamycin methyl ester]
- Total Score [18]: 14
- Differential Index 3LL [19]: 0.54
- Differential Index N/4.2 [20]: 1.09
- Activity (Average PG for highest dose tested) Breast Cancer [3]: −58.7%
- Activity (Average PG for highest dose tested) Renal Cancer [4]: −73.7%
- Activity (Average PG for highest dose tested) Leukemia [7]: −14.6%
- Activity (Average PG for highest dose tested) Prostate Cancer [8]: −63.0%
- Activity (Average PG for highest dose tested) Colon Cancer [10]: −84.9%
- Differential Index K/1 ([11]; K/1 = ras^K transformed NRKE cells, compared with normal NRKE cells): 1.40
- Activity (Average PG for highest dose tested) Melanoma [13]: −86.1%
- Activity (Average PG for highest dose tested) Non-Small Cell Lung Cancer [14]: −69.3%
- Differential Index H/1.2 [21]: 1.07
- Activity (Average PG for highest dose tested) Ovarian Cancer [15]: −39.3%
- Activity (Average PG for highest dose tested) CNS Cancer [17]: −52.2%
